Experimental data taken from ChEMBL document CHEMBL3045443, “Mode for Herbicidal Action of 2-Amino-3-chloro-1,4-naphthoquinone (ACN)” (Biosci Biotechnol Biochem, 1994).

How the values were obtained:
Assay type in all cases: functional
Scenedesmus acutus [1] = test: Herbicidal activity against Scenedesmus acutus assessed as packed-cell volume per ml of culture at 10^-6 M autotrophically for 20 hr by phytotoxicity assay (reference value: 6.6 ul pcv/ml)
Scenedesmus acutus [2] = test: Herbicidal activity against Scenedesmus acutus assessed as protoporphyrin-IX content per ml of packed-cell volume at 10^-5 M autotrophically for 20 hr by phytotoxicity assay (reference value: 2 nM/ml pcv)
Scenedesmus acutus [3] = test: Herbicidal activity against Scenedesmus acutus assessed as chlorophyll content per ml of packed-cell volume at 10^-6 M autotrophically for 20 hr by phytotoxicity assay (reference value: 5.32 mg/ml pcv)
Scenedesmus acutus [4] = test: Herbicidal activity against Scenedesmus acutus assessed as chlorophyll content per ml of packed-cell volume at 10^-5 M autotrophically for 20 hr by phytotoxicity assay (reference value: 5.32 mg/ml pcv)
Scenedesmus acutus [5] = test: Herbicidal activity against Scenedesmus acutus assessed as ethane production per ml of packed-cell volume at 10^-5 M autotrophically for 20 hr by phytotoxicity assay (reference value: 0.28 nM/ml pcv)
Scenedesmus acutus [6] = test: Herbicidal activity against Scenedesmus acutus assessed as protoporphyrin-IX content per ml of packed-cell volume at 10^-6 M autotrophically for 20 hr by phytotoxicity assay (reference value: 2 nM/ml pcv)
Scenedesmus acutus [7] = test: Herbicidal activity against Scenedesmus acutus assessed as ethane production per ml of packed-cell volume at 10^-6 M autotrophically for 20 hr by phytotoxicity assay (reference value: 0.28 nM/ml pcv)
Scenedesmus acutus [8] = test: Herbicidal activity against Scenedesmus acutus assessed as packed-cell volume per ml of culture at 10^-5 M autotrophically for 20 hr by phytotoxicity assay (reference value: 6.6 ul pcv/ml)
Scenedesmus acutus [9] = test: Herbicidal activity against Scenedesmus acutus assessed as chlorophyll content per ml of packed-cell volume at 10^-4 M autotrophically for 20 hr by phytotoxicity assay (reference value: 5.32 mg/ml pcv)
Scenedesmus acutus [10] = test: Herbicidal activity against Scenedesmus acutus assessed as chlorophyll content per ml of packed-cell volume at 10^-5 M heterotrophically for 20 hr by phytotoxicity assay (reference value: 6.52 mg/ml pcv)
Scenedesmus acutus [11] = test: Herbicidal activity against Scenedesmus acutus assessed as growth measured as packed-cell volume per ml of culture at 10^-5 M heterotrophically for 20 hr by phytotoxicity assay (reference value: 1.5 ul pcv/ml)
Scenedesmus acutus [12] = test: Herbicidal activity against Scenedesmus acutus assessed as protoporphyrin-IX content per ml of packed-cell volume at 10^-4 M autotrophically for 20 hr by phytotoxicity assay (reference value: 2 nM/ml pcv)
Scenedesmus acutus [13] = test: Herbicidal activity against Scenedesmus acutus assessed as chlorophyll content per ml of packed-cell volume at 10^-6 M heterotrophically for 20 hr by phytotoxicity assay (reference value: 6.52 mg/ml pcv)
Scenedesmus acutus [14] = test: Herbicidal activity against Scenedesmus acutus assessed as chlorophyll content per ml of packed-cell volume at 10^-4 M heterotrophically for 20 hr by phytotoxicity assay (reference value: 6.52 mg/ml pcv)
Scenedesmus acutus [15] = test: Herbicidal activity against Scenedesmus acutus assessed as ethane production per ml of packed-cell volume at 10^-4 M autotrophically for 20 hr by phytotoxicity assay (reference value: 0.28 nM/ml pcv)
Scenedesmus acutus [16] = test: Herbicidal activity against Scenedesmus acutus assessed as growth measured as packed-cell volume per ml of culture at 10^-6 M heterotrophically for 20 hr by phytotoxicity assay (reference value: 1.5 ul pcv/ml)
Scenedesmus acutus [17] = test: Herbicidal activity against Scenedesmus acutus assessed as growth measured as packed-cell volume per ml of culture at 10^-4 M heterotrophically for 20 hr by phytotoxicity assay (reference value: 1.5 ul pcv/ml)
Scenedesmus acutus [18] = test: Herbicidal activity against Scenedesmus acutus assessed as packed-cell volume per ml of culture at 10^-4 M autotrophically for 20 hr by phytotoxicity assay (reference value: 6.6 ul pcv/ml)
Scenedesmus acutus [19] = test: Herbicidal activity against Scenedesmus acutus assessed as chlorophyll content per ml of packed-cell volume at 10^-7 M heterotrophically for 20 hr by phytotoxicity assay (reference value: 6.52 mg/ml pcv)
Scenedesmus acutus [20] = test: Herbicidal activity against Scenedesmus acutus assessed as growth measured as packed-cell volume per ml of culture at 10^-7 M heterotrophically for 20 hr by phytotoxicity assay (reference value: 1.5 ul pcv/ml)

Compound	Activity (Scenedesmus acutus [1]) [µL]	Activity (Scenedesmus acutus [2]) [nM]	Activity (Scenedesmus acutus [3]) [mg]	Activity (Scenedesmus acutus [4]) [mg]	Activity (Scenedesmus acutus [5]) [nM]	Activity (Scenedesmus acutus [6]) [nM]	Activity (Scenedesmus acutus [7]) [nM]	Activity (Scenedesmus acutus [8]) [µL]	Activity (Scenedesmus acutus [9]) [mg]	Activity (Scenedesmus acutus [10]) [mg]	Activity (Scenedesmus acutus [11]) [µL]	Activity (Scenedesmus acutus [12]) [nM]	Activity (Scenedesmus acutus [13]) [mg]	Activity (Scenedesmus acutus [14]) [mg]	Activity (Scenedesmus acutus [15]) [nM]	Activity (Scenedesmus acutus [16]) [µL]	Activity (Scenedesmus acutus [17]) [µL]	Activity (Scenedesmus acutus [18]) [µL]	Activity (Scenedesmus acutus [19]) [mg]	Activity (Scenedesmus acutus [20]) [µL]
CCC(C)c1cc([N+](=O)[O-])cc([N+](=O)[O-])c1O (stereo unspecified) [DINOSEB]	6.6	2	5.5	5.91	0.34	1.5	0.18	5.3	–	–	–	–	–	–	–	–	–	–	–	–
NC1=C(Cl)C(=O)c2ccccc2C1=O	4.2	2	3.67	0.07	7.51	2	0.23	2.6	0	4.76	1.1	3.5	5.22	4.76	10.43	1.3	1.1	2.1	–	–
N#Cc1cc(I)c(O)c(I)c1 [IOXYNIL]	6.5	2	5.71	5.82	0.3	2.5	0.22	5.7	–	–	–	–	–	–	–	–	–	–	–	–
O=C1C2=C(CCCC2)C(=O)N1c1ccc(Cl)cc1 [CHLOROPHTHALIUM]	2.8	–	0.25	0.17	–	23.5	8.77	2.4	–	2.85	1	–	4.9	–	–	1.1	–	–	6.65	1.3
